Experiment: xn = mol fraction of the nth substance listed
Conditions: Liquid, Vibrating tube method

CCC[N+]1(C)CCCCC1.O=S(=O)([N-]S(=O)(=O)C(F)(F)F)C(F)(F)F + CC(=O)c1ccccc1
mass density [kg/m3]
Conditions	100 kPa	10000 kPa	15000 kPa	20000 kPa	25000 kPa	30000 kPa	35000 kPa	40000 kPa	45000 kPa	50000 kPa
298.15 K, x2 = 0.1024	1393.3	1399.9	1402.9	1406	1408.8	1411.6	1414.3	1417.1	1419.8	1422.4
298.15 K, x2 = 0.2007	1376	1382.5	1385.4	1388.5	1391.3	1394.1	1396.8	1399.5	1402.2	1404.8
298.15 K, x2 = 0.3001	1355.5	1361.8	1364.8	1367.9	1370.7	1373.5	1376.2	1379	1381.7	1384.3
298.15 K, x2 = 0.4001	1331.8	1338	1341	1344.1	1346.9	1349.7	1352.4	1355.1	1357.8	1360.4
298.15 K, x2 = 0.5008	1303.8	1309.9	1312.8	1315.8	1318.5	1321.3	1324	1326.6	1329.3	1331.8
298.15 K, x2 = 0.6001	1270.5	1276.6	1279.5	1282.5	1285.2	1287.9	1290.5	1293.2	1295.7	1298.2
298.15 K, x2 = 0.7003	1229.4	1235.5	1238.3	1241.2	1243.9	1246.5	1249.1	1251.7	1254.2	1256.7
298.15 K, x2 = 0.7999	1178	1184	1186.8	1189.7	1192.3	1194.9	1197.5	1200.1	1202.6	1205
298.15 K, x2 = 0.8998	1111.5	1117.3	1120	1122.7	1125.2	1127.8	1130.4	1133	1135.4	1137.8
318.15 K, x2 = 0.1024	1376.7	1383.4	1386.8	1389.8	1392.8	1395.8	1398.8	1401.6	1404.5	1407.1
318.15 K, x2 = 0.2007	1359	1365.7	1369.1	1372.1	1375.1	1378.1	1381.1	1383.9	1386.7	1389.3
318.15 K, x2 = 0.3001	1338.4	1345.1	1348.5	1351.5	1354.5	1357.5	1360.5	1363.3	1366.1	1368.7
318.15 K, x2 = 0.4001	1314.6	1321.3	1324.7	1327.7	1330.7	1333.7	1336.5	1339.3	1342.1	1344.8
318.15 K, x2 = 0.5008	1286.6	1293.1	1296.5	1299.5	1302.4	1305.4	1308.2	1310.9	1313.7	1316.3
318.15 K, x2 = 0.6001	1253.2	1259.8	1263.1	1266.1	1269	1271.9	1274.8	1277.4	1280.2	1282.8
318.15 K, x2 = 0.7003	1212	1218.5	1221.8	1224.7	1227.7	1230.6	1233.4	1236	1238.7	1241.3
318.15 K, x2 = 0.7999	1160.6	1167.1	1170.2	1173.1	1176	1178.8	1181.7	1184.2	1186.9	1189.5
318.15 K, x2 = 0.8998	1093.9	1100.3	1103.4	1106.3	1109.2	1112	1114.9	1117.4	1120.1	1122.6
348.15 K, x2 = 0.1024	1350.8	1357.9	1361.5	1365.1	1368.5	1371.7	1374.9	1377.9	1381	1383.8
348.15 K, x2 = 0.2007	1333	1340.3	1344	1347.5	1350.9	1354.1	1357.4	1360.4	1363.4	1366.2
348.15 K, x2 = 0.3001	1312.4	1319.7	1323.4	1327	1330.4	1333.7	1336.8	1339.9	1342.8	1345.6
348.15 K, x2 = 0.4001	1288.5	1295.8	1299.5	1303	1306.4	1309.6	1312.8	1315.8	1318.8	1321.6
348.15 K, x2 = 0.5008	1260.2	1267.6	1271.2	1274.6	1277.9	1281.2	1284.3	1287.3	1290.3	1293.1
348.15 K, x2 = 0.6001	1226.6	1234.1	1237.7	1241.1	1244.4	1247.7	1250.8	1253.8	1256.8	1259.6
348.15 K, x2 = 0.7003	1185.5	1193	1196.6	1199.9	1203.2	1206.5	1209.6	1212.6	1215.6	1218.4
348.15 K, x2 = 0.7999	1134.2	1141.7	1145.2	1148.6	1151.8	1155.1	1158.2	1161.2	1164.2	1167
348.15 K, x2 = 0.8998	1067.9	1075.4	1078.9	1082.1	1085.4	1088.6	1091.7	1094.7	1097.7	1100.4

Source: the NIST ThermoML archive (doi:10.1016/j.jct.2012.01.008)
